≈ marks a conversion by molar mass, not a printed value.
Legend:
Assay type in all cases: cell-based
LTC4 = test: Inhibition of the LTC4-induced contraction of strips of guinea pig lung; conditions: Cavia porcellus; LTC4 3 ng/ml of bath liquid; lung strips pretreated with indomethacin (10^-6 g/ml); substance added at maximum contraction plateau; 37° C.; read-out: IC50 versus LTC4
Method: (§1) The leukotriene-antagonistic action of the substances of the general formula I according to the invention is determined by the inhibition of the leukotriene-induced contraction of strips of guinea pig lung. The method which is used is a modification of the tests described by Foreman, Shelly and Weber (Arch. Int. Pharmacodyn. 278, 193-206 (1985)).
(§2) Guinea pigs are sacrificed by an overdose of ether. The thoracic cavity is opened; the lungs are removed and cut into strips 5 cm long, which are stored in physiological saline. For the measurement, the strips of lung are placed in an organ bath filled with Ringer's solution which is equilibrated at 37° C. and through which carbogen (O2 /CO2 95:5 parts by volume) is passed. The strips are left to equilibrate under a load of 0.5-1 g for 30-60 minutes. The strips of lung are pretreated with indomethacin (10^-6 g/ml of bath liquid) before the test starts.
(§3) The contraction is induced by adding LTC4, LTD4 or LTE4 in a concentration of 3 ng/ml of bath liquid. The test substances are administered therapeutically into the bath, after the maximum contraction plateau has been reached, in several concentrations and at time intervals of 10 minutes. 6-12 strips of lung are used for each concentration of the test substances.
(§4) The concentrations of the test substances at which the contraction is reduced by 50% (IC50) are indicated in μg/ml.

LTD4 = test: Inhibition of the LTD4-induced contraction of strips of guinea pig lung; conditions: Cavia porcellus; LTD4 3 ng/ml of bath liquid; lung strips pretreated with indomethacin (10^-6 g/ml); substance added at maximum contraction plateau; 37° C.; read-out: IC50 versus LTD4
Method: as §1, §2, §3, §4

LTE4 = test: Inhibition of the LTE4-induced contraction of strips of guinea pig lung; conditions: Cavia porcellus; LTE4 3 ng/ml of bath liquid; lung strips pretreated with indomethacin (10^-6 g/ml); substance added at maximum contraction plateau; 37° C.; read-out: IC50 versus LTE4
Method: as §1, §2, §3, §4

| Compound | IC50 (LTC4) [µg/mL] | IC50 (LTD4) [µg/mL] | IC50 (LTE4) [µg/mL] |
| --- | --- | --- | --- |
| COC(=O)CSC[C@@H](O)[C@@H](Sc1cccc(OC)c1)c1ccccc1 (racemic) [Compound B, Methyl (5RS,6SR)-5-hydroxy-6-(3-methoxyphenylthio)-6-phenyl-3-thiahexanoate] | 0.6 to 1 (≈ 1.59 to 2.64 µM) | 0.6 (≈ 1.59 µM) | 1 (≈ 2.64 µM) |
| COC(=O)CSC[C@H](O)[C@H](Sc1cccc(OC)c1)c1ccccc1 [Compound C, Methyl (5 S,6 R)(-)-5-hydroxy-6-(3-methoxyphenylthio)-6-phenyl-3-thiahexanoate] | 0.3 to 0.6 (≈ 0.793 to 1.59 µM) | 0.1 (≈ 0.264 µM) | 0.3 to 0.6 (≈ 0.793 to 1.59 µM) |
| CCCS[C@@H](c1ccccc1)[C@H](O)CSCC(=O)OC (racemic) [Compound E, Methyl (5RS,6SR)-5-hydroxy-6-phenyl-3,7-dithiadecanoate] | 6 (≈ 19.1 µM) | 0.6 to 1 (≈ 1.91 to 3.18 µM) | 6 to 10 (≈ 19.1 to 31.8 µM) |
| CCCS[C@@H](c1ccccc1)[C@H](O)COCC(=O)OC (racemic) [Compound D, Methyl (5RS,6SR)-5-hydroxy-6-phenyl-3-oxa-7-thiadecanoate] | > 10 | 0.5 (≈ 1.68 µM) | > 10 |
| COC(=O)COC[C@@H](O)[C@@H](Sc1cccc(OC)c1)c1ccccc1 (racemic) [Compound A, Methyl (5RS,6SR)-5-hydroxy-6-(3-methoxyphenylthio)-6-phenyl-3-oxahexanoate] | 0.6 (≈ 1.66 µM) | 0.3 (≈ 0.828 µM) | 1 (≈ 2.76 µM) |

Source: patent US4851440A, “Leukotriene antagonists, processes for the preparation thereof, the use thereof for the treatment of diseases, and precursors” (Hoechst Aktiengesellschaft, priority 1987, dated 1989)
